Assays:
Format in all cases: functional, organism-based
[1] = system: Human immunodeficiency virus 1; assay: Antiviral activity against HIV1 in MT4 cells; conditions: Human immunodeficiency virus 1, MT4
[2] = system: Human alphaherpesvirus 1; assay: Antiviral activity against HSV1 in CCL81 cells; conditions: Human alphaherpesvirus 1, CCL 81
[3] = system: Human alphaherpesvirus 2; assay: Antiviral activity against HSV2 in CCL81 cells; conditions: Human alphaherpesvirus 2, CCL 81
[4] = system: Human betaherpesvirus 5; assay: Antiviral activity against HCMV AD169; conditions: Human betaherpesvirus 5, AD169

| Compound | EC50 [1] [µM] | EC50 [2] [µM] | EC50 [3] [µM] | EC50 [4] [µM] |
| --- | --- | --- | --- | --- |
| C[C@]1(CO)C[C@]1(F)n1ccc(N)nc1=O (racemic) | > 100 | > 100 | > 100 | > 100 |
| C[C@]1(CO)C[C@@]1(F)n1ccc(=O)[nH]c1=O (racemic) | > 100 | > 100 | > 100 | 43 |
| Cc1cn([C@]2(F)C[C@]2(C)CO)c(=O)[nH]c1=O (racemic) | 35 | > 100 | > 100 | > 100 |
| Cc1cn([C@@]2(F)C[C@]2(C)CO)c(=O)[nH]c1=O (racemic) | 89 | > 100 | > 100 | 51.4 |
| C[C@]1(CO)C[C@]1(F)n1cnc2c(N)ncnc21 (racemic) | > 100 | 67 | > 100 | 71 |
| C[C@]1(CO)C[C@@]1(F)n1cnc2c(N)ncnc21 (racemic) | > 100 | 87 | > 100 | > 100 |
| C[C@]1(CO)C[C@@]1(F)n1ccc(N)nc1=O (racemic) | 65 | > 100 | > 100 | > 100 |
| C[C@]1(CO)C[C@]1(F)n1ccc(=O)[nH]c1=O (racemic) | 19.4 | > 100 | > 100 | 10.6 |
| Nc1nc2c(ncn2COC(CO)CO)c(=O)[nH]1 [GANCICLOVIR] |  | 1.5 | 1.5 | 1.01 |
| Cc1cn([C@H]2C[C@H](N=[N+]=[N-])[C@@H](CO)O2)c(=O)[nH]c1=O [ZIDOVUDINE] | 0.0008 |  |  |  |
